ChEMBL document CHEMBL4387706, “Discovery of Novel Spiroindoline Derivatives as Selective Tankyrase Inhibitors” (J Med Chem, 2019)

Key:
[1] = Tmax in Sprague-Dawley rat at 3 mg/kg, po; format: ADME, organism-based; settings: in vivo
[2] = AUC (infinity) in Sprague-Dawley rat at 3 mg/kg, po; format: ADME, organism-based; design: dose 3 mg/kg, time infinity, route oral; settings: in vivo
[3] = Oral bioavailability in Sprague-Dawley rat at 3 mg/kg; format: ADME, organism-based; settings: in vivo
[4] = Half life in Sprague-Dawley rat at 1 mg/kg, iv; format: ADME, organism-based; settings: in vivo
[5] = Protein binding in mouse serum assessed as unbound fraction at 1 uM measured after 24 hrs by LC-MS/MS analysis; format: ADME, cell-free
[6] = molecular target: Poly [ADP-ribose] polymerase 2 (Homo sapiens, UniProt Q9UGN5); assay: Inhibition of human recombinant N-terminal GST-tagged PARP2 (2 to 583 residues) expressed in baculovirus infected Sf9 cells assessed as reduction in auto-PARylation using histone as substrate measured after 45 mins in presence of biotinylated-NAD+ by ELISA
[7] = in vitro; settings: human, liver microsomes
Description: Stability in human liver microsomes assessed as parent compound remaining at 1 uM measured after 30 mins in presence of NADPH by LC-MS/MS analysis

[8] = in vitro; settings: mouse, liver microsomes
Description: Stability in mouse liver microsomes assessed as parent compound remaining at 1 uM measured after 30 mins in presence of NADPH by LC-MS/MS analysis

[9] = Cmax in Sprague-Dawley rat at 3 mg/kg, po; format: ADME, organism-based; design: dose 3 mg/kg, route oral; settings: in vivo
[10] = molecular target: Poly [ADP-ribose] polymerase 1 (Homo sapiens, UniProt P09874)
Description: Inhibition of recombinant human PARP1 expressed in Escherichia coli assessed as reduction in auto-PARylation using histone as substrate measured after 45 mins in presence of biotinylated-NAD+ by ELISA

[11] = molecular target: 5-hydroxytryptamine receptor 1B (Homo sapiens) (UniProt P28222); assay: Displacement of [3H]GR125743 from full-length recombinant human 5HT1B receptor expressed in human Chem1 cells at 10 uM measured after 90 mins by scintillation counting method relative to control; format: cell-based
[12] = Volume of distribution at steady state in Sprague-Dawley rat at 1 mg/kg, iv; format: ADME, organism-based; settings: in vivo, read-out: Vdss
[13] = AUC (infinity) in Sprague-Dawley rat at 1 mg/kg, iv; format: ADME, organism-based; design: dose 1 mg/kg, route intravenous, time infinity; settings: in vivo
[14] = Initial plasma concentration in Sprague-Dawley rat at 1 mg/kg, iv; format: ADME, organism-based
[15] = test system: COLO 320DM; assay: cells; settings: Homo sapiens, 96 h
Description: Antiproliferative activity against human COLO320DM cells assessed as inhibition of cell growth measured after 4 days by CellTiter-Glo assay

[16] = Total clearance in Sprague-Dawley rat at 1 mg/kg, iv; format: ADME, organism-based; settings: in vivo
[17] = molecular target: T1, Protein mono-ADP-ribosyltransferase PARP10 (Homo sapiens, UniProt Q53GL7); assay: Inhibition of human recombinant N-terminal TEV-cleavgae site-fused-FLAG/Polyhis-tagged PARP10 […] expressed in Escherichia coli assessed as reduction in auto-PARylation using histone as substrate measured after 45 mins in presence of biotinylated-NAD+ by ELISA
T1 sequence (Q53GL7 whole entry): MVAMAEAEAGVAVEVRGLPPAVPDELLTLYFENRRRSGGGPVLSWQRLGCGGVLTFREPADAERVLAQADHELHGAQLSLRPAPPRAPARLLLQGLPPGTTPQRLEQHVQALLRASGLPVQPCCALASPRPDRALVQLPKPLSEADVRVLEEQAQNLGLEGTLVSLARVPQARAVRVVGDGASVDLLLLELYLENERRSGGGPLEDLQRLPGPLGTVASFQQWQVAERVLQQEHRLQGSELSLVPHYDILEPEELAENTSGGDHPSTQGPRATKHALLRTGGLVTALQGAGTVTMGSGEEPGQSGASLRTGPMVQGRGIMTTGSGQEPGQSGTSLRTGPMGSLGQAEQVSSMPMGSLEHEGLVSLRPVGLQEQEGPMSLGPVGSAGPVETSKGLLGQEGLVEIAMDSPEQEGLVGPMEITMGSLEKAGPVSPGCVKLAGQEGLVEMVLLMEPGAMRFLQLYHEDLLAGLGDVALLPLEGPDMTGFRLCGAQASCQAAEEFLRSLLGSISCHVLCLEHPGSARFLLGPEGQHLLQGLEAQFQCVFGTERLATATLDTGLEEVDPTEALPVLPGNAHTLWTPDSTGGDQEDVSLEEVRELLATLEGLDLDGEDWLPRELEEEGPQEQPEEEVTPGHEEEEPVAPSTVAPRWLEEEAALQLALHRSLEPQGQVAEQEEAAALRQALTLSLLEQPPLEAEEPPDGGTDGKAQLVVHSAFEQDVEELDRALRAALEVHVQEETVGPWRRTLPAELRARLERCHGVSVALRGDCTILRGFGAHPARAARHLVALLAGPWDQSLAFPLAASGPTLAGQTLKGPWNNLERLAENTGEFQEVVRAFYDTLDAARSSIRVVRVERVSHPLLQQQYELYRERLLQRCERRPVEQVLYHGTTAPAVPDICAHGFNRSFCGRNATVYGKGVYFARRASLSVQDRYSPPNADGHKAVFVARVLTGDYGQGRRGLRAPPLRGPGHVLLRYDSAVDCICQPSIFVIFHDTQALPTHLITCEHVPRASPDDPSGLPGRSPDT

[18] = Protein binding in human serum assessed as unbound fraction at 1 uM measured after 24 hrs by LC-MS/MS analysis; format: ADME, cell-free

Poly [ADP-ribose] polymerase 1, sequence (P09874 whole entry): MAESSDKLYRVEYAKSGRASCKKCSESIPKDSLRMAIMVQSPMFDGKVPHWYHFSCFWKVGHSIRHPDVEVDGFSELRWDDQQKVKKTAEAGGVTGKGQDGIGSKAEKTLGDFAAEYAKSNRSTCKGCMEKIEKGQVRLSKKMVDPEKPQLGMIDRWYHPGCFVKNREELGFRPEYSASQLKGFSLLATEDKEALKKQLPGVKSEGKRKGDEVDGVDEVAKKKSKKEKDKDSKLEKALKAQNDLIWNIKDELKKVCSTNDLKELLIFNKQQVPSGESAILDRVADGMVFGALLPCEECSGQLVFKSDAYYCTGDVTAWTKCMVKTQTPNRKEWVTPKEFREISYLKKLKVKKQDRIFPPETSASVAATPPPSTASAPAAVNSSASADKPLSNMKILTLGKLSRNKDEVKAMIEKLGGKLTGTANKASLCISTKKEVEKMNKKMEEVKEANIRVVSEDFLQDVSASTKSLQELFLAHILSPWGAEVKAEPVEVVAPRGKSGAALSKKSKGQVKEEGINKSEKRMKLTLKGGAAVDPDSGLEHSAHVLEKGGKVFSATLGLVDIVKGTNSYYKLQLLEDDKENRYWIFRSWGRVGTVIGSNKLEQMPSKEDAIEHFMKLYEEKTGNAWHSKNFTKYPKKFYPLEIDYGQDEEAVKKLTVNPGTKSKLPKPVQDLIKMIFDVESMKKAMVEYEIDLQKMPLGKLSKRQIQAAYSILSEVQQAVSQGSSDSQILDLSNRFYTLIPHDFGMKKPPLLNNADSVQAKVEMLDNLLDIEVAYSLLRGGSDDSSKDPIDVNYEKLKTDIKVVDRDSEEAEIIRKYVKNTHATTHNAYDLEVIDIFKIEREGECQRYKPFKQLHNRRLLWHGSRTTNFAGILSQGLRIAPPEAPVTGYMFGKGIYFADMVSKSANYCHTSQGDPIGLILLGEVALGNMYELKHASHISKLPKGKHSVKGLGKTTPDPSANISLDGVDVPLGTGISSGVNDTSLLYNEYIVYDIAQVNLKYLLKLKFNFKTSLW
Poly [ADP-ribose] polymerase 2, sequence (Q9UGN5 whole entry, the tested form may be a part): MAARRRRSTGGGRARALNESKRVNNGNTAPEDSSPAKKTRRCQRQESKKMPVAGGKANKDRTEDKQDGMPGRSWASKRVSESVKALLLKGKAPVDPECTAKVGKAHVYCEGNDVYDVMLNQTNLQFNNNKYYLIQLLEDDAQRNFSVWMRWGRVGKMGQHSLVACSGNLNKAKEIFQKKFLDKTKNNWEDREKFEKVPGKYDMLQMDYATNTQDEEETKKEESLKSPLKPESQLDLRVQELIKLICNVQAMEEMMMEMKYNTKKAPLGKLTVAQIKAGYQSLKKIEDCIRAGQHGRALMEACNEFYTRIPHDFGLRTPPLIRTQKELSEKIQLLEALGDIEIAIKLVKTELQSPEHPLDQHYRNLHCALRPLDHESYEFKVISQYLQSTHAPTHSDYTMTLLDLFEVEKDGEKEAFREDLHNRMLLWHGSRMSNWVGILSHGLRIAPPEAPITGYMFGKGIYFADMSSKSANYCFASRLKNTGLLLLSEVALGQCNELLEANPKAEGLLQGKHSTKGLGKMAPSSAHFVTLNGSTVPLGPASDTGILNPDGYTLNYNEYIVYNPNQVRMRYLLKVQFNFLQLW
5-hydroxytryptamine receptor 1B (Homo sapiens), sequence (P28222 whole entry): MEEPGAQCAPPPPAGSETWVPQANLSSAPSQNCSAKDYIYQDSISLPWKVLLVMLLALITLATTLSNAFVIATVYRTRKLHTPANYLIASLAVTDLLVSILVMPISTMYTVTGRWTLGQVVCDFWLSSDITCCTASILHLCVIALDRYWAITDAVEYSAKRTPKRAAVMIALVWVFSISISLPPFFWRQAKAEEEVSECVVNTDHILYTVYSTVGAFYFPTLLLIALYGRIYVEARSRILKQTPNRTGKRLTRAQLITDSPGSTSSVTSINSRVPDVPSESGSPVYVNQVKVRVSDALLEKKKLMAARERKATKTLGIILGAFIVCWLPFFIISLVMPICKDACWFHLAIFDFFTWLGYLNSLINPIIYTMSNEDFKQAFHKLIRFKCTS

| Structure (SMILES) | Tmax [1] [h] | AUC(0-inf) [2] [µM·h] | bioavailability [3] [%] | half-life [4] [h] | fraction unbound at 24 h, 1 µM [5] | IC50 [6] [µM] | remaining at 0.5 h, 1 µM [7] [%] | remaining at 0.5 h, 1 µM [8] [%] | Cmax [9] [nM] | IC50 [10] [µM] | inhibition [11] [%] | Vd [12] [L/kg] | AUC(0-inf) [13] [µM·h] | C0 [14] [nM] | GI50 [15] [µM] | clearance [16] [mL/min/kg] | IC50 [17] [µM] | fraction unbound at 24 h, 1 µM [18] |
| --- | --- | --- | --- | --- | --- | --- | --- | --- | --- | --- | --- | --- | --- | --- | --- | --- | --- | --- |
| O=c1[nH]c(N2CCC3(CC2)CN(CCO)c2cc(F)cc(F)c23)nc2c1CCCC2 | 0.25 | 7.92 | 59.8 | 3.5 | 0.015 | 2.72 | 5.9 | 18.3 | 2280 | 20 to 100 | > 20 | 0.59 | 4.42 | 9840 | 1.6 | 9 | 19.8 | 0.004 |
| COc1ccccc1N1CCN(c2nc3c(c(=O)[nH]2)CCCC3)CC1 | 0.5 | 1.27 | 59.7 | 13 | 0.029 | 2.23 | 84.1 | 0 | 120 | 20 to 100 |  | 58.9 | 0.72 | 1000 | 3.2 | 68 | 10.2 | 0.043 |
